{
  "source": "patent US20170066779A1",
  "about": "“SOLID FORMS OF A FLAVIVIRIDAE VIRUS INHIBITOR COMPOUND AND SALTS THEREOF” (IDENIX Pharmaceuticals LLC, priority 2014, published 2017)",
  "key": {"[1]": {"test": "Gravimetric vapor sorption (GVS)", "type": "physicochemical", "details": "for XRPD post GVS / XRPD after GVS: solid form after the sorption cycle", "protocol": "Sorption isotherms were obtained using a SMS DVS Intrinsic moisture sorption analyzer, controlled by DVS Intrinsic Control software v1.0.0.30. The sample temperature was maintained at 25° C. by the instrument controls. The humidity was controlled by mixing streams of dry and wet nitrogen, with a total flow rate of 200 mL/min. The relative humidity (RH) was measured by a calibrated Rotronic probe (dynamic range of 1.0-100% RH), located near the sample. The weight change, (mass relaxation) of the sample as a function of % RH was constantly monitored by the microbalance (accuracy ±0.005 mg). Typically 5-20 mg of sample was placed in a tared mesh stainless steel basket under ambient conditions. The sample was loaded and unloaded at 40% RH and 25° C. (typical room conditions). A moisture sorption isotherm was performed as outlined below (2 scans giving 1 complete cycle). The standard isotherm was performed at 25° C. at 10% RH intervals over a 0-90% RH range. Data analysis was undertaken in Microsoft Excel using DVS Analysis Suite v6.0.0.7."}, "[2]": {"test": "Solid-state storage stability at elevated temperature and humidity (XRPD)", "type": "physicochemical", "protocol": "One hundred milligrams of the amorphous form of the compound of Formula I was solubilized into 5 volumes of ethyl acetate or acetone under constant stirring at respectively 70° C. or 50° C. (experiment performed in duplicate). […] Systems were then allowed to equilibrate at initial temperature for 1 hour (crashing out reported in all cases). Some samples were then filtered at respectively 70° C. or 50° C. Other samples were cooled to 0° C. at 0.1° C./min. Suspensions were observed after 1 hour slurrying at 0° C. Ten volumes of solvent were added to each sample and the systems were allowed to equilibrate at 0° C. for 1 hour. One aliquot of each condition was filtered under reduced pressure, dried for 16 hours at 70° C. and 3 mbar and characterized by XRPD, ^1H-NMR and HPLC (Table 6).\nCa. 0.5 g of the compound of Formula I was weighed in a 10 mL vial, 15 vol. of IPAc were added. The suspension was heated to 50° C., 2.5 eq of acid added (from a stock solution 1 M in THF) and then cooled to 5° C. at 0.1° C. min^−1. Suspension was filtered with vacuum and allowed to dry under these conditions for 4 h. Samples were analyzed by XRPD to check the conversion and then they were dried under vacuum at 30° C. for 20 h. […] The suspension was heated to 50° C. and additional 0.5 eq of acid added from a stock solution 1 M in THF. The suspension was then cooled to 5° C. at 0.1° C. min^−1. The solid was filtered with vacuum and allowed to dry under these conditions for 4 h. The solid was analyzed by XRPD to check the conversion and then it was dried under vacuum at 30° C. for 20 h."}, "[3]": {"test": "Absolute oral bioavailability in rats", "details": "rat, in vivo, dosed as a solution in 0.5% TPGS/37.5% PEG200/60% PBS, 10 mg/kg PO and 2 mg/kg IV", "protocol": "The desired route of administration for the compound of Formula I is oral. The absolute oral bioavailability in rats was determined to be approximately 4-8% when dosed as a solution in 0.5% TPGS/37.5% PEG200/60% PBS. The doses were 10 mg/kg PO and 2 mg/kg IV."}, "[4]": {"test": "Thermodynamic aqueous solubility", "type": "physicochemical", "details": "for thermodynamic aqueous solubility, rank order: solubility decreases in the printed order", "protocol": "The suspension was equilibrated at 25° C. for 24 hours then the pH was measured. The suspension was then filtered through a glass fibre C filter. The filtrate was then diluted by an appropriate factor, e.g. 101. Quantitation was by HPLC with reference to a standard solution of approximately 0.25 mg/mL in DMSO. Different volumes of the standard, diluted and undiluted sample solutions were injected."}, "Caco-2 cell model": {"tested_on": "Caco-2 cell model", "test": "Permeability in the 3-day Caco-2 cell model", "type": "in vitro ADME"}, "P-gp": {"target": "T1, P-gp (Homo sapiens, UniProt P08183)", "T1 construct": "endogenous in cells; host or cells: Caco-2", "T1 sequence (P08183 whole entry)": "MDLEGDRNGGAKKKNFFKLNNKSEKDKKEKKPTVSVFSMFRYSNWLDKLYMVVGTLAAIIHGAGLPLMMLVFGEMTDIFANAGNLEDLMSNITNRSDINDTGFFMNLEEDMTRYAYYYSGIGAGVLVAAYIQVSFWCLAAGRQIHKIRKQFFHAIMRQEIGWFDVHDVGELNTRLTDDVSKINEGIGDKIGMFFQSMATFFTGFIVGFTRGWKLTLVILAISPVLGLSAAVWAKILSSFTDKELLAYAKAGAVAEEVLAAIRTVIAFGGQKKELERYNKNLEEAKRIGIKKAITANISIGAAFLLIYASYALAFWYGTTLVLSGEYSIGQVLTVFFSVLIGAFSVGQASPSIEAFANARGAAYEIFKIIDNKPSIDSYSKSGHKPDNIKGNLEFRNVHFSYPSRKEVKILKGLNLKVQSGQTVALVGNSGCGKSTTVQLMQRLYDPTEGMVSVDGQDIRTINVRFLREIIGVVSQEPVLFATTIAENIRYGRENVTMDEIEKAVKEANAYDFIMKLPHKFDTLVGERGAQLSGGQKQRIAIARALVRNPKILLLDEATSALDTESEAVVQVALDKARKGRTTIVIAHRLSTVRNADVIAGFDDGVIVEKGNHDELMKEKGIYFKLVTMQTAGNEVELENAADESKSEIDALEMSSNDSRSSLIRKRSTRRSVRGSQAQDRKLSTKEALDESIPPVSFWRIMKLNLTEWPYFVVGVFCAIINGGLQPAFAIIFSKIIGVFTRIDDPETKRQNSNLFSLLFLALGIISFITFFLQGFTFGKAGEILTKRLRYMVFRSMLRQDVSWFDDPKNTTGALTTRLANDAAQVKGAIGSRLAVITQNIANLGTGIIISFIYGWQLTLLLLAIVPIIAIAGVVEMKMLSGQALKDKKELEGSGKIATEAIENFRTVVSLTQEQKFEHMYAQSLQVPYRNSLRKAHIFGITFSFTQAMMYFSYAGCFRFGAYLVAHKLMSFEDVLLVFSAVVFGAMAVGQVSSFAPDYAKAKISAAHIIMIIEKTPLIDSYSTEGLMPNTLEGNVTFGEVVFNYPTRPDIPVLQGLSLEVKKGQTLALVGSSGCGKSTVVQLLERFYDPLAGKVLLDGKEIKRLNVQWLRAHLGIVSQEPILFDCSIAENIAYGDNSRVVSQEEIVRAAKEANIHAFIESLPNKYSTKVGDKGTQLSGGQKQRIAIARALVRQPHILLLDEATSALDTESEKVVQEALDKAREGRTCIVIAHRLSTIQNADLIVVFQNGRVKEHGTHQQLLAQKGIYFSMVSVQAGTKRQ", "test": "P-gp substrate assessment (BA/AB transport ratio, with or without cyclosporine A)", "type": "in vitro ADME"}, "[5]": {"test": "Half-life in human hepatocytes", "type": "in vitro ADME", "protocol": "Furthermore, the half-life in human hepatocytes was in the mid/long range of >8 hours for the compound of Formula I. Consequently, rapid hepatic clearance is unlikely to contribute to low oral bioavailability."}},
  "data": [
    {"molecule": "COC(=O)N[C@H](C(=O)N1CCC[C@H]1c1nc2ccc(-c3csc4c(-c5ccc(-c6cnc([C@@H]7CCCN7C(=O)[C@H](NC(=O)OC)c7ccccc7)[nH]6)cc5)csc34)cc2[nH]1)C(C)C", "note": "[Form A, methyl N-{(1R)-2-[(2S)-2-{5-[4-(6-{2-[(2S)-1-{(2S)-2-[(methoxycarbonyl)amino]-3-methylbutanoyl}pyrrolidin-2-yl]-3H-benzimidazol-5-yl}thieno[3,2-b]thiophen-3-yl)phenyl]-1H-imidazol-2-yl}pyrrolidin-1-yl]-2-oxo-1-phenylethyl}carbamate]", "values": [
      {"measurement": "GVS weight uptake at 90% RH", "setting": "[1]; 25° C., 90% RH", "value": 1.16, "unit": "wt %"},
      {"measurement": "XRPD post GVS / XRPD after GVS", "setting": "[1]", "value": "Form A"},
      {"measurement": "Stability 25° C./92% RH (XRPD after 11 days)", "setting": "[2]; 25° C./92% RH, 11 days", "value": "Form A"},
      {"measurement": "Stability 40° C./75% RH (XRPD after 11 days)", "setting": "[2]; 40° C./75% RH, 11 days", "value": "Form A"},
      {"measurement": "effect of GVS analysis and storage at elevated temperature and humidity on the crystals", "setting": "[2]; eleven days, recrystallized 100 mg scale samples", "value": "remained as Form A"}
    ]},
    {"molecule": "COC(=O)N[C@H](C(=O)N1CCC[C@H]1c1nc2ccc(-c3csc4c(-c5ccc(-c6cnc([C@@H]7CCCN7C(=O)[C@H](NC(=O)OC)c7ccccc7)[nH]6)cc5)csc34)cc2[nH]1)C(C)C", "note": "[compound of Formula I, methyl N-{(1R)-2-[(2S)-2-{5-[4-(6-{2-[(2S)-1-{(2S)-2-[(methoxycarbonyl)amino]-3-methylbutanoyl}pyrrolidin-2-yl]-3H-benzimidazol-5-yl}thieno[3,2-b]thiophen-3-yl)phenyl]-1H-imidazol-2-yl}pyrrolidin-1-yl]-2-oxo-1-phenylethyl}carbamate]", "values": [
      {"measurement": "bioavailability", "setting": "[3]", "value": "4 to 8", "unit": "%"},
      {"measurement": "BCS classification", "setting": "[4]; based on poor aqueous solubility and low Caco-2 permeability", "value": "BCS Class IV"},
      {"measurement": "solubility", "setting": "[4]; poor aqueous solubility, basis of BCS classification", "value": "< 500", "unit": "µg/mL"},
      {"measurement": "thermodynamic aqueous solubility, rank order", "setting": "[4]", "value": "HCl>H2SO4>tosylate=free base form"},
      {"measurement": "permeability", "setting": "Caco-2 cell model", "value": "low permeability"},
      {"measurement": "effect from addition of P-gp inhibitor cyclosporine A", "setting": "P-gp", "value": "absence of effect"},
      {"measurement": "P-gp substrate", "setting": "P-gp; deduced from BA/AB transport ratio and cyclosporine A addition", "value": "not a P-gp substrate"},
      {"measurement": "efflux ratio", "setting": "P-gp; human, Caco-2", "value": "< 1"},
      {"measurement": "half-life", "setting": "[5]", "value": "> 8", "unit": "h"}
    ]},
    {"molecule": "H2SO4", "values": [
      {"measurement": "GVS wt uptake between 0-90% RH", "setting": "[1]", "value": "RH 25.5% wt"},
      {"measurement": "GVS wt uptake between 40-75% RH", "setting": "[1]; 40-75% RH", "value": 6.12, "unit": "% wt uptake"},
      {"measurement": "GVS wt uptake between 75-90% RH", "setting": "[1]; 75-90% RH", "value": "RH 14.5% wt"},
      {"measurement": "XRPD post GVS / XRPD after GVS", "setting": "[1]", "value": "Amorphous"},
      {"measurement": "Stability 25° C./92% RH (XRPD after 7 days)", "setting": "[2]; 25° C./92% RH", "value": "Amorphous"},
      {"measurement": "Stability 40° C./75% RH (XRPD after 7 days)", "setting": "[2]; 40° C./75% RH", "value": "Amorphous"}
    ]},
    {"molecule": "Tosylate", "values": [
      {"measurement": "pH of the equilibrated suspension in the solubility determination", "setting": "[4]; measured after equilibration at 25° C. for 24 hours", "value": 1.52},
      {"measurement": "Aqueous Solubility", "setting": "[4]; scaled-up amorphous salts, final pH printed in the same cell", "value": 0.00, "unit": "mgmL^−1"},
      {"measurement": "thermodynamic aqueous solubility, rank order", "setting": "[4]", "value": "HCl>H2SO4>tosylate=free base form"},
      {"measurement": "GVS wt uptake between 0-90% RH", "setting": "[1]", "value": 9.5, "unit": "% wt uptake"},
      {"measurement": "XRPD post GVS / XRPD after GVS", "setting": "[1]", "value": "Amorphous"},
      {"measurement": "Stability 25° C./92% RH (XRPD after 7 days)", "setting": "[2]; 25° C./92% RH", "value": "Amorphous"},
      {"measurement": "Stability 40° C./75% RH (XRPD after 7 days)", "setting": "[2]; 40° C./75% RH", "value": "Amorphous"}
    ]}
  ]
}
